# Assay results: US10238738B2, “Methods of modulating immune system responses” (priority 2014, dated 2019)
# How the values were obtained:
# TIFA [1] = molecular target: T1, TIFA (Homo sapiens, UniProt Q96CG3); assay: Phosphopeptide analysis of FLAG-TIFA by LC-MS/MS; assay type: cell-based; details: HBP or mock-treated cells stably expressing FLAG-TIFA; FIG. 19a
# T1 construct: expressed in transfected cells; endogenous TIFA knocked down with a 3' UTR shRNA
# T1 sequence (Q96CG3 1-184): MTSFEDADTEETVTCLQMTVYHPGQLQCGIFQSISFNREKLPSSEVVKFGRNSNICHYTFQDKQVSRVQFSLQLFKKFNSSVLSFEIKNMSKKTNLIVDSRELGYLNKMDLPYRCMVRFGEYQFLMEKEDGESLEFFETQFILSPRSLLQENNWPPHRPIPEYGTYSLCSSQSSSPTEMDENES
# Method: (§1) FLAG-TIFA was immunoprecipitated from Jurkat cells using FLAG M2 agarose beads (Sigma) as described previously (Chen and Gingras, 2007). Briefly, cells were lysed in 50 mM Hepes-KOH pH 8.0, 100 mM KCl, 2 mM EDTA, 0.1% NP40, 10% glycerol. Soluble cell lysates were pre-cleared for 2 hr with mouse IgG agarose (Sigma) and immunoprecipitated overnight at 4° C. Proteins eluted using 0.5 M NH4OH pH 11 (for mass-spectrometry), or 3× FLAG-peptide (Sigma) (immunoblot analysis). TRAF6 was immunoprecipitated from Jurkat cell lysates using rabbit anti-TRAF6 (sc-72201; Santa cruz) conjugated to protein A/G PLUS-agarose (Santa cruz) and eluted in sample buffer. Whole cell lysates or immunoprecipitation eluates were immunoblotted with the following antibodies: M2 anti-FLAG (Sigma), rabbit anti-FLAG (Sigma), mouse anti-TRAF6 (sc-8409; Santa Cruz), rabbit anti-TRAF2 (sc-876), mouse anti-ubiquitin (sc-8017; Santa cruz), mouse anti-beta actin (Sigma). For phosphopeptide analysis, FLAG-TIFA was excised from the gel, subject to in-gel trypic digestion, followed by treatment with cyanogen bromide (Sigma) in 70% TFA and analyzed by LC/MS/MS. Data were analyzed by Scaffold PTM (Proteome).
# NF-κB = NF-κB luciferase reporter assay in 293T cells; assay type: cell-based, human
# Method: 293T were maintained in DMEM supplemented with 10% FBS, 1% glutamax, and 1% penicillin streptomycin. Jurkat 1G5 cells contain a stably-integrated LTR-luciferase reporter gene (Aguilar-Cordova et al., 1994), and were maintained in RPMI supplemented with 10% FBS and 1% glutamax. THP-1 cells were maintained in RPMI supplemented with 10% FBS and 1% glutamax and differentiated to macrophages with 50 ng/ml PMA for 48 hr, followed by a 48 hr rest period prior to stimulation. To measure LTR-driven luciferase, 1G5 cells were lysed and luminescence determined using the Luciferase Assay kit (Promega) according to manufacturer's instructions. Results are expressed as fold change compared to untreated. 293T cells were transfected in 96 well plates with 90 ng ELAM firefly luciferase reporter plasmid (Chow et al., 1999) and 10 ng pRL-TK Renilla plasmid using TransiT LTI (Mirus). 18 hours later cells were treated for 6 hours and luciferase activity determined using the Dual-Glo Luciferase Assay System (Promega). Results are expressed as fold increase relative to transfected, mock treated cells following normalization to Renilla luciferase. Digitonin permeabilization assays were done as described previously (Girardin et al., 2003) with the following modifications: 1G5 cells were stimulated with purified HBP supernatants, or 10 μg/ml flagellin (Invivogen) for 20 minutes at 4° C. in the absence or presence of 2 μg/ml digitonin (Sigma). […]
# 293T were maintained in DMEM supplemented with 10% FBS, 1% glutamax, and 1% penicillin streptomycin. […] To measure LTR-driven luciferase, 1G5 cells were lysed and luminescence determined using the Luciferase Assay kit (Promega) according to manufacturers instructions. Results are expressed as fold change compared to untreated. […] 18 hours later cells were treated for 6 hours and luciferase activity determined using the Dual-Glo Luciferase Assay System (Promega). Results are expressed as fold increase relative to transfected, mock treated cells following normalization to Renilla luciferase.
# TIFA [2] = molecular target: T1, TIFA; assay: Native PAGE analysis of FLAG-TIFA oligomerization; assay type: cell-based; details: clear native-PAGE or blue native PAGE; Jurkat cells; FIG. 20
# Excerpt: For BlueNative PAGE, cells were lysed in 1% NP-40, 0.1% Triton-X100, 0.1% SDS and soluble lysate separated by gradient PAGE (8-16%) using ExpressPlus System™ (GenScript) as described previously (Kofoed and Vance, 2013). For ClearNative PAGE, cells were lysed in 1% NP-40, 0.1% Trition-X100, 0.1% SDS and soluble lysate separated on 12.5% tris-glycine polyacrylamide gels.
# TIFA-TRAF6 interaction = molecular target: T2, TIFA-TRAF6 interaction (Homo sapiens, UniProt Q96CG3); assay: FLAG-TIFA immunoprecipitation and immunoblot for TRAF6; assay type: cell-based
# T2 construct: expressed in transfected cells; endogenous TIFA knocked down with a 3' UTR shRNA; TRAF6 endogenous
# T2 sequence (Q96CG3 1-184): T1 sequence (Q96CG3 1-184)
# Method: as §1
compound,measurement,setting,value
"O=P(O)(O)OC[C@@H](O)[C@H]1OC(OP(=O)(O)O)[C@@H](O)[C@@H](O)[C@@H]1O (stereo partly drawn) [HBP, D-glycerol-D-manno-heptose-1,7-bisphosphate]",TIFA Thr9 phosphorylation,TIFA [1],phosphorylated only after treatment with HBP
same,NF-κB activation after incubation of the product with phosphatase GmhB,NF-κB; FIG. 1e,decreased NF-κB activation
same,NF-κB activation,"NF-κB; product of in vitro reaction of S7P with GmhA and HldA, FIG. 1d",potently stimulated NF-κB
same,TIFA oligomerization,TIFA [2],triggered TIFA oligomerization
same,Ubiquitin chains in the TIFA-TRAF6 complex,"TIFA-TRAF6 interaction; Jurkat cells, TIFA immunoprecipitation, FIG. 17a",Ubiquitin chains could be detected
same,TIFA-TRAF6 interaction,"TIFA-TRAF6 interaction; cells expressing FLAG-TIFA, endogenous TIFA knocked down, FIG. 16a",completely dependent on HBP
same,Time at which TIFA-TRAF6 interaction was apparent,"TIFA-TRAF6 interaction; post treatment, FIG. 16a",30 min
